Assays:
[1] = test system: Mus musculus; assay: Biodistribution in mouse B16F0 cells bearing C57B16 mouse tumor at 1.26 to 5.29 MBq, iv after 5 days; assay type: ADME, organism-based, Neoplasm; conditions: in vivo, 120 h
[2] = test system: Mus musculus; assay: Biodistribution in mouse B16F0 cells bearing C57B16 mouse tumor at 1.26 to 5.29 MBq, iv after 3 hrs; assay type: ADME, organism-based, Neoplasm; conditions: in vivo
[3] = test system: Mus musculus; assay: Biodistribution in mouse B16F0 cells bearing C57B16 mouse tumor at 1.26 to 5.29 MBq, iv after 72 hrs; assay type: ADME, organism-based, Neoplasm; conditions: in vivo
[4] = test system: Mus musculus; assay: Biodistribution in mouse B16F0 cells bearing C57B16 mouse tumor at 1.26 to 5.29 MBq, iv after 24 hrs; assay type: ADME, organism-based, Neoplasm; conditions: in vivo
[5] = test system: Mus musculus; assay: Biodistribution in mouse B16F0 cells bearing C57B16 mouse tumor at 1.26 to 5.29 MBq, iv after 6 hrs; assay type: ADME, organism-based, Neoplasm; conditions: in vivo
[6] = test system: Mus musculus; assay: Biodistribution in mouse B16F0 cells bearing C57B16 mouse tumor at 1.26 to 5.29 MBq, iv after 1 hr; assay type: ADME, organism-based, Neoplasm; conditions: in vivo
[7] = test system: Mus musculus; assay: Biodistribution in mouse B16F0 cells bearing C57B16 mouse tumor at 1.26 to 5.29 MBq, iv after 7 days; assay type: ADME, organism-based, Neoplasm; conditions: in vivo, 168 h
[8] = test system: Mus musculus; assay: Biodistribution in mouse B16F0 cells bearing C57B16 mouse tumor at 1.26 to 5.29 MBq, iv after 14 days; assay type: ADME, organism-based, Neoplasm; conditions: in vivo, 336 h
[9] = test system: Mus musculus; assay: Biodistribution in mouse B16F0 cells bearing C57B16 mouse tumor at 1.26 to 5.29 MBq, iv after 10 days; assay type: ADME, organism-based, Neoplasm; conditions: in vivo, 240 h
[10] = test system: Mus musculus; assay: Biodistribution in mouse B16F0 cells bearing C57B16 mouse tumor assessed per volume of tissue at 7.4 MBq, iv after 2 hrs; assay type: ADME, organism-based, Neoplasm; conditions: in vivo
[11] = test system: Mus musculus; assay: Biodistribution in mouse B16F10 cells bearing C57B16 mouse tumor assessed per volume of tissue at 7.4 MBq, iv after 2 hrs; assay type: ADME, organism-based, Neoplasm, B16-F10; conditions: in vivo
[12] = test system: Mus musculus; assay: Biodistribution in mouse B16F0 cells bearing C57B16 mouse tumor assessed per volume of tissue at 7.4 MBq, iv after 4 hrs; assay type: ADME, organism-based, Neoplasm; conditions: in vivo
[13] = test system: Mus musculus; assay: Biodistribution in mouse B16F10 cells bearing C57B16 mouse tumor assessed per volume of tissue at 7.4 MBq, iv after 4 hrs; assay type: ADME, organism-based, Neoplasm, B16-F10; conditions: in vivo
[14] = test system: Mus musculus; assay: Biodistribution in mouse B16F0 cells bearing iv dosed C57B16 mouse tumor assessed as absorption dose; assay type: ADME, organism-based, Neoplasm; conditions: in vivo
[15] = test system: Mus musculus; assay: Biodistribution in mouse B16F0 cells bearing C57B16 mouse throat at 2.7 MBq, iv after 1 hr; assay type: ADME, organism-based; conditions: in vivo
[16] = Biodistribution in mouse B16F0 cells bearing C57B16 mouse feces at 2.7 MBq, iv after up to 24 hrs; assay type: ADME, organism-based; conditions: in vivo
[17] = Biodistribution in mouse B16F0 cells bearing C57B16 mouse urine at 2.7 MBq, iv after up to 24 hrs; assay type: ADME, organism-based; conditions: in vivo
[18] = Biodistribution in mouse B16F0 cells bearing C57B16 mouse feces at 2.7 MBq, iv after up to 72 hrs; assay type: ADME, organism-based; conditions: in vivo
[19] = Biodistribution in mouse B16F0 cells bearing C57B16 mouse urine at 2.7 MBq, iv after up to 82 hrs; assay type: ADME, organism-based; conditions: in vivo
[20] = test system: Mus musculus; assay: Biodistribution in mouse B16F0 cells bearing C57B16 mouse throat at 2.7 MBq, iv after 10 days; assay type: ADME, organism-based; conditions: in vivo, 240 h
[21] = test system: Nucleic Acid; assay: Ratio of drug uptake in tumor to muscle in mouse B16F0 cells bearing C57B16 mouse at 2.7 MBq, iv after 1 hr; assay type: ADME, organism-based; conditions: in vivo
[22] = test system: Nucleic Acid; assay: Ratio of drug uptake in tumor to muscle in mouse B16F0 cells bearing C57B16 mouse at 2.7 MBq, iv after 3 hrs; assay type: ADME, organism-based; conditions: in vivo
[23] = Antitumor activity against mouse B16F0 cells bearing C57B16 mouse assessed as inhibition of tumor growth doubling time at 18.5 MBq, iv administered 2 times on day 6 and 10; assay type: functional

With `CCN(CCNC(=O)c1cnc2cc([125I])ccc2n1)c1cccc(F)n1` the Drug uptake [1] was 0.3 % ID/g, the Drug uptake [2] was 2.2 % ID/g and the Drug uptake [3] was 0.4 % ID/g. It also gave a Drug uptake [4] of 0.9 % ID/g, a Drug uptake [5] of 1.8 % ID/g and a Drug uptake [6] of 2 % ID/g. It also gave a Drug uptake [7] of 0.2 % ID/g.
With `CCN(CCNC(=O)c1cnc2cc([125I])ccc2n1)CCc1ccnc(F)c1.Cl.Cl` the Drug uptake [1] was 5.2 % ID/g, the Drug uptake [2] was 13.3 % ID/g and the Drug uptake [3] was 7.7 % ID/g. For the same compound, the Drug uptake [8] was 1.1 % ID/g, the Drug uptake [9] was 1.6 % ID/g and the Drug uptake [4] was 11.2 % ID/g. For the same compound, the Drug uptake [5] was 14.5 % ID/g, the Drug uptake [6] was 12.1 % ID/g and the Drug uptake [7] was 3 % ID/g.
`CCN(CCNC(=O)c1ccc2cc([125I])ccc2c1)CCOc1cccnc1F.Cl` gave a Drug uptake [1] of 2.8 % ID/g, a Drug uptake [2] of 8 % ID/g and a Drug uptake [8] of 0.6 % ID/g. For the same compound, the Drug uptake [9] was 0.2 % ID/g, the Drug uptake [4] was 5.9 % ID/g and the Drug uptake [5] was 7.4 % ID/g. For the same compound, the Drug uptake [6] was 7.9 % ID/g and the Drug uptake [7] was 2.1 % ID/g.
`CCN(CCNC(=O)c1cccc2nc3cc([125I])ccc3nc12)CCOc1cccnc1F.Cl.Cl` showed a Drug uptake [1] of 3.7 % ID/g, a Drug uptake [2] of 12.3 % ID/g and a Drug uptake [3] of 5.8 % ID/g. The Drug uptake [8] was 0.7 % ID/g, the Drug uptake [9] was 1.2 % ID/g and the Drug uptake [4] was 13.8 % ID/g. For the same compound, the Drug uptake [5] was 13.8 % ID/g, the Drug uptake [6] was 11.4 % ID/g and the Drug uptake [7] was 2 % ID/g.
`CCN(CCNC(=O)c1ccnc(F)c1)CCNC(=O)c1cnc2cc([125I])ccc2n1.Cl.Cl` showed a Drug uptake [1] of 5.1 % ID/g, a Drug uptake [2] of 8.8 % ID/g and a Drug uptake [3] of 9.6 % ID/g. For the same compound, the Drug uptake [4] was 12.1 % ID/g, the Drug uptake [5] was 12.1 % ID/g and the Drug uptake [6] was 9.6 % ID/g.
Work on `CCN(CCNC(=O)c1cccc2c(=O)c3cc([125I])ccc3[nH]c12)CCOc1cccnc1F.Cl` yielded a Drug uptake [1] of 4.5 % ID/g, a Drug uptake [2] of 13 % ID/g and a Drug uptake [3] of 8.6 % ID/g. It also gave a Drug uptake [8] of 2 % ID/g, a Drug uptake [9] of 2.7 % ID/g and a Drug uptake [4] of 16 % ID/g. For the same compound, the Drug uptake [5] was 13 % ID/g, the Drug uptake [6] was 10.7 % ID/g and the Drug uptake [7] was 4.3 % ID/g.
For `CCN(CC)CCNC(=O)c1cnc2cc([125I])ccc2n1.Cl.Cl`, the Drug uptake [1] was 7.3 % ID/g, the Drug uptake [2] was 26.3 % ID/g and the Drug uptake [3] was 12.3 % ID/g. For the same compound, the Drug uptake [9] was 1.9 % ID/g, the Drug uptake [4] was 28 % ID/g and the Drug uptake [5] was 29.6 % ID/g. For the same compound, the Drug uptake [6] was 21.8 % ID/g and the Drug uptake [7] was 3.4 % ID/g.
Compound `CCN(CCNC(=O)c1ccc2cc([125I])ccc2n1)CCOc1cccnc1F.Cl.Cl` has a Drug uptake [1] of 2.3 % ID/g, a Drug uptake [2] of 10.8 % ID/g and a Drug uptake [3] of 3.2 % ID/g. It also gave a Drug uptake [8] of 0.2 % ID/g, a Drug uptake [9] of 0.4 % ID/g and a Drug uptake [4] of 6.3 % ID/g. For the same compound, the Drug uptake [5] was 9.7 % ID/g, the Drug uptake [6] was 10.7 % ID/g and the Drug uptake [7] was 1.1 % ID/g.
Compound `CCN(CCNC(=O)c1cnc2cc(I)ccc2n1)CCOc1cccnc1[18F]` has a Drug uptake [10] of 8.3 %ID, a Drug uptake [11] of 2.1 %ID and a Drug uptake [12] of 0.6 %ID. For the same compound, the Drug uptake [13] was 0.2 %ID.
In the case of `CCN(CC)CCNC(=O)c1cnc2cc([131I])ccc2n1.Cl.Cl`, the Drug uptake [14] is reported as 1.71 Gy/MBq.
Work on `CCN(CCCc1ccnc(F)c1)CCNC(=O)c1cnc2cc([125I])ccc2n1.Cl.Cl` yielded a Drug uptake [1] of 5.1 % ID/g, a Drug uptake [2] of 9.3 % ID/g and a Drug uptake [3] of 9.5 % ID/g. The Drug uptake [8] was 0.7 % ID/g, the Drug uptake [9] was 1.4 % ID/g and the Drug uptake [4] was 16.3 % ID/g. For the same compound, the Drug uptake [5] was 14.1 % ID/g, the Drug uptake [6] was 9.1 % ID/g and the Drug uptake [7] was 2.5 % ID/g.
Compound `CCN(CCNC(=O)c1cn2cc([125I])ccc2n1)CCOc1cccnc1F.Cl.Cl` has a Drug uptake [1] of 6.4 % ID/g, a Drug uptake [2] of 13.1 % ID/g and a Drug uptake [3] of 8.6 % ID/g. It also gave a Drug uptake [8] of 1.6 % ID/g, a Drug uptake [9] of 2.3 % ID/g and a Drug uptake [4] of 15.6 % ID/g. For the same compound, the Drug uptake [5] was 13.4 % ID/g, the Drug uptake [6] was 13.2 % ID/g and the Drug uptake [7] was 3.9 % ID/g.
With `CCN(CCNC(=O)c1cnc2cc([125I])ccc2n1)CCNc1cccc(F)n1.Cl.Cl` the Drug uptake [1] was 2.6 % ID/g, the Drug uptake [2] was 13.7 % ID/g and the Drug uptake [3] was 5.7 % ID/g. The Drug uptake [8] was 0.4 % ID/g, the Drug uptake [9] was 0.8 % ID/g and the Drug uptake [4] was 8.6 % ID/g. The Drug uptake [5] was 12.5 % ID/g, the Drug uptake [6] was 13.1 % ID/g and the Drug uptake [7] was 1.5 % ID/g.
For `CCN(CCNC(=O)c1ccc2cncc([125I])c2n1)CCOc1cccnc1F.Cl.Cl`, the Drug uptake [1] was 1.6 % ID/g, the Drug uptake [2] was 5.5 % ID/g and the Drug uptake [3] was 3.3 % ID/g. The Drug uptake [8] was 0.4 % ID/g, the Drug uptake [9] was 0.5 % ID/g and the Drug uptake [4] was 5.2 % ID/g. For the same compound, the Drug uptake [5] was 5.3 % ID/g, the Drug uptake [6] was 5.6 % ID/g and the Drug uptake [7] was 1.1 % ID/g.
`CCN(CCNC(=O)c1cnc2cc([125I])ccc2n1)CCOc1cccnc1F.Cl.Cl` showed a Drug uptake [1] of 5.2 % ID/g, a Drug uptake [2] of 20.2 % ID/g and a Drug uptake [3] of 10.3 % ID/g. For the same compound, the Drug uptake [8] was 0.6 % ID/g, the Drug uptake [9] was 1.7 % ID/g and the Drug uptake [4] was 18.2 % ID/g. For the same compound, the Drug uptake [5] was 18.8 % ID/g, the Drug uptake [15] was 1.5 %ID and the Drug uptake [6] was 12.7 % ID/g. The Drug uptake [16] was 36.1 %ID, the Drug uptake [7] was 3.2 % ID/g and the Drug uptake [17] was 38.1 %ID. The Drug uptake [18] was 18.7 %ID, the Drug uptake [19] was 45.1 %ID and the Drug uptake [20] was 0.1 %ID. It also gave a Ratio [21] of 23 and a Ratio [22] of 37.
`CCN(CC)Cc1ccnc(F)c1CNC(=O)c1cnc2cc([125I])ccc2n1.Cl.Cl` gave a Drug uptake [1] of 2.4 % ID/g, a Drug uptake [2] of 6.5 % ID/g and a Drug uptake [3] of 4.1 % ID/g. It also gave a Drug uptake [8] of 0.7 % ID/g, a Drug uptake [9] of 0.8 % ID/g and a Drug uptake [4] of 6.4 % ID/g. The Drug uptake [5] was 6.7 % ID/g, the Drug uptake [6] was 5.6 % ID/g and the Drug uptake [7] was 1.5 % ID/g.
In the case of `CCN(CCNC(=O)c1cnc2cc([125I])ccc2n1)Cc1ccnc(F)c1.Cl.Cl`, the Drug uptake [1] is reported as 7.1 % ID/g, the Drug uptake [2] is reported as 12 % ID/g and the Drug uptake [3] is reported as 10 % ID/g. The Drug uptake [8] was 0.8 % ID/g, the Drug uptake [9] was 1.9 % ID/g and the Drug uptake [4] was 16 % ID/g. For the same compound, the Drug uptake [5] was 15.4 % ID/g and the Drug uptake [6] was 10.3 % ID/g.
In the case of `CCN(CCNC(=O)c1cnc2cc([131I])ccc2n1)CCOc1cccnc1F.Cl.Cl`, the Time [23] is reported as 3.8 days and the Drug uptake [14] is reported as 1.12 Gy/MBq.

Reference: ChEMBL document CHEMBL1765071, “Single photon emission computed tomography/positron emission tomography imaging and targeted radionuclide therapy of melanoma: new multimodal fluorinated and iodinated radiotracers” (J Med Chem, 2011)
